Values quoted from earlier work in patent US20070083941A1, “Rat TRPM7 polynucleotide and encoded protein” (Wyeth, priority 2005, published 2007).

Target: TRPM7 (Homo sapiens, UniProt Q96QT4)
Conditions: high concentrations of intracellular MgATP and Mg^2+; basal activity of TRPM7; read-out: IC50 of inhibition of TRPM7

Chain of TRPM7 (Q96QT4 whole entry, species assumed): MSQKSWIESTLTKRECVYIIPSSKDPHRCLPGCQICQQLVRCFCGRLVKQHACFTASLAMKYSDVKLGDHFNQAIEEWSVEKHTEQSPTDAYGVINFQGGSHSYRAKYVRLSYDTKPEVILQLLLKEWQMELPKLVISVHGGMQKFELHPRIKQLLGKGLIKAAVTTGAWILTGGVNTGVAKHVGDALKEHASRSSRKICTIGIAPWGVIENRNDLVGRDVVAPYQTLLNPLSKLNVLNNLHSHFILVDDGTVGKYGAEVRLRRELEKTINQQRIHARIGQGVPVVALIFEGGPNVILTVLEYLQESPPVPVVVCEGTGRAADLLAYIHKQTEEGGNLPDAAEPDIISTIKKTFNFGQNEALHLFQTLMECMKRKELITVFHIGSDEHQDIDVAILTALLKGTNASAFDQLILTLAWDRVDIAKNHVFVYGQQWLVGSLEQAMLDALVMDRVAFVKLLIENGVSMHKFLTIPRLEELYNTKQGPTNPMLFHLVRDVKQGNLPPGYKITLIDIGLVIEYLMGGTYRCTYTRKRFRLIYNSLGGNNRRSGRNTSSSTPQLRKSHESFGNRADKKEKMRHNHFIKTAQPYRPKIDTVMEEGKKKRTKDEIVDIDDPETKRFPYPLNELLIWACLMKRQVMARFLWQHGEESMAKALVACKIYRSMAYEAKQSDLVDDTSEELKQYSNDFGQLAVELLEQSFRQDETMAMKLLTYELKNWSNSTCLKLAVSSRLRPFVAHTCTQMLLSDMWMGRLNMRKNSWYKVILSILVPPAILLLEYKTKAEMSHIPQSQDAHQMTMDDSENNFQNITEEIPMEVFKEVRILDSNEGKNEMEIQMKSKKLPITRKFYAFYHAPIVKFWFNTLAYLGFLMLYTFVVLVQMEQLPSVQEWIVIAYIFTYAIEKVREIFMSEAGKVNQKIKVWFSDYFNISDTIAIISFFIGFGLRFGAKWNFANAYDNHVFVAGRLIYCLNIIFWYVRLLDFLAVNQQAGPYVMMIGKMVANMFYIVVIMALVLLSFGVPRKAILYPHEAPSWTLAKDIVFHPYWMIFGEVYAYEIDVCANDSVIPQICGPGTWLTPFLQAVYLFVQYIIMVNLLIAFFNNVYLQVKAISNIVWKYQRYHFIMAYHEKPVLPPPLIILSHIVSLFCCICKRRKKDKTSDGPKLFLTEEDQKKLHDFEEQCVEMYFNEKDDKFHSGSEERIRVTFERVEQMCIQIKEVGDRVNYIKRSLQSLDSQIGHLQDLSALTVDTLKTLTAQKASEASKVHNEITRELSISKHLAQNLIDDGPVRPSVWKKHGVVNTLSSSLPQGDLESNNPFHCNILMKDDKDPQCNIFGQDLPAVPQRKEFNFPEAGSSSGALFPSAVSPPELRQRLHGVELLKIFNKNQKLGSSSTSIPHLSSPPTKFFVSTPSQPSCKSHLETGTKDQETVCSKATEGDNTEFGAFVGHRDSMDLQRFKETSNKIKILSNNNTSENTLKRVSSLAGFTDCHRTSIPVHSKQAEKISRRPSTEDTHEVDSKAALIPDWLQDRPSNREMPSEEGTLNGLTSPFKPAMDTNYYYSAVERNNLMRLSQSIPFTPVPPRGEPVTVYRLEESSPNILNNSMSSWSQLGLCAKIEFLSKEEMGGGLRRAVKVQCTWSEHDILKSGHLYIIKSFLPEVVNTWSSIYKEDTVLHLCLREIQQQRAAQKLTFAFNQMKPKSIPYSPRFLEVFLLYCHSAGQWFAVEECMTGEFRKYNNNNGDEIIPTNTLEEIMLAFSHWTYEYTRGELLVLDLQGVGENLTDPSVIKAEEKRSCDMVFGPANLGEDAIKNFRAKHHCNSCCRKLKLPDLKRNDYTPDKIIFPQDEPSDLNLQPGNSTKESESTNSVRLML

| Structure (SMILES) | IC50 [µM] |
| --- | --- |
| [Mg+2] [Mg^2+] | ~600 |
| Nc1ncnc2c1ncn2[C@@H]1O[C@H](COP(=O)(O)OP(=O)(O)OP(=O)(O)O)[C@@H](O)[C@H]1O [MgATP] | ~600 |
